Laboratory results as given in patent US20170348263A1, “COMPOSITIONS AND METHODS OF USING MODIFIED RELEASE SOLABEGRON FOR LOWER URINARY TRACT SYMPTOMS” (VELICEPT THERAPEUTICS, INC., priority 2016, published 2017).

Assays:
beta-3 adrenoceptor [1] = target: T1, beta-3 adrenoceptor (Rattus norvegicus, UniProt P26255); assay: EC90 determination: inhibition of EFS-induced contraction in rat isolated bladder (pilot CCRC); format: cell-based; details: pilot concentration response curves, read-out: EC90 concentration to inhibit EFS-induced contraction
T1 construct: The bladder longitudinal smooth muscle, with the urothelium still attached were mounted in 25 mL organ baths; from tissue; host or cells: rat urinary bladder smooth muscle strips (Male CD rats)
Protocol: Macroscopically normal bladders obtained from Male CD rats (220-250 g) were used. […] Each bladder was cleaned free of surrounding connective tissue and halved longitudinally. The bladder longitudinal smooth muscle, with the urothelium still attached were mounted in 25 mL organ baths containing physiological saline solution (PSS) (composition: 119.0 mM NaCl, 4.7 mM KCl, 1.2 mM MgSO4, 24.9 mM NaHCO3, 1.2 mM KH2PO4, 2.5 mM CaCl2 and 11.1 mM glucose) supplemented with 1 μM prazosin (α1-adrenoceptor antagonist) and 30 nM ICI118551 (β2-adrenoceptor antagonist), aerated with 95% O2/5% CO2 gas mix, warmed and maintained at approximately 37° C. throughout the experiment. Changes in force production were recorded using transducers. […]
In initial experiments the parameters for the EFS were assessed by performing a frequency curve to determine a frequency that would give a response that was approximately 80% of the response seen to 80 mM KCl. Optimal EFS parameters were determined to be: 30 Volts, square pulse of 0.1 ms, train of 4 seconds every 120 seconds, 15 Hz. […]
Pilot studies to determine EC90 concentrations of the test compounds were performed. […] From the data obtained in these experiments, EC90 concentrations of the test compounds were determined for use in subsequent experiments. […]

beta-3 adrenoceptor [2] = target: T1, beta-3 adrenoceptor; assay: Receptor desensitization/washout: CCRC after incubation with EC90 concentration and PSS washout, rat bladder strips; format: cell-based
Protocol: Macroscopically normal bladders obtained from Male CD rats (220-250 g) were used. […] Each bladder was cleaned free of surrounding connective tissue and halved longitudinally. The bladder longitudinal smooth muscle, with the urothelium still attached were mounted in 25 mL organ baths containing physiological saline solution (PSS) (composition: 119.0 mM NaCl, 4.7 mM KCl, 1.2 mM MgSO4, 24.9 mM NaHCO3, 1.2 mM KH2PO4, 2.5 mM CaCl2 and 11.1 mM glucose) supplemented with 1 μM prazosin (α1-adrenoceptor antagonist) and 30 nM ICI118551 (β2-adrenoceptor antagonist), aerated with 95% O2/5% CO2 gas mix, warmed and maintained at approximately 37° C. throughout the experiment. Changes in force production were recorded using transducers. After mounting, the bladder halves were allowed to equilibrate for at least 30 min before they were set to a stable tension of approximately 1.0 g. The tissue was then allowed to equilibrate over at least a 60 min period with washes every 15 min.
In initial experiments the parameters for the EFS were assessed by performing a frequency curve to determine a frequency that would give a response that was approximately 80% of the response seen to 80 mM KCl. Optimal EFS parameters were determined to be: 30 Volts, square pulse of 0.1 ms, train of 4 seconds every 120 seconds, 15 Hz. This frequency was then used to stimulate the tissue for all subsequent experiments. The viability of bladder strips was tested by stimulating the tissue with EFS for minimum of ten minutes.
Following compound incubation, the tissues were washed with PSS for a period of 1, 3 or 6 hr, with washes approximately every 15 min, to remove the drug. At the end of the final wash period the tissues were stimulated with EFS, and left to equilibrate for at least 30 min. A CCRC was then performed in each tissue. Tissue responses were calculated as the mean (SEM) and expressed as percentage of EFS induced tone.
Tissues were incubated with the EC90 concentration of the test compounds for one hr followed by one hr, three hr or six hr of washing with PSS. […] This EFS-induced potentiation of bladder contraction from baseline was not observed with solabegron. […] Effect of the washout period following a […] incubation with test compound.
In the next series of experiments, tissues were incubated with the EC90 concentration of the test compounds for three hr followed by either one hr, three hr or six hr of washing with PSS.

Solubility of solabegron = format: physicochemical
overactive bladder = details: women with moderate to severe OAB; cited from earlier work
beta-3 adrenoceptor [3] = target: T2, beta-3 adrenoceptor (Homo sapiens, UniProt P13945); assay: Desensitization and resensitization in isolated human bladder tissue strips (EFS responses); format: cell-based; set-up: dose or concentration left out as unconfirmed
T2 construct: from tissue; host or cells: human urinary bladder muscle strips
Protocol: Beta-3 adrenoceptor desensitization and resensitization were examined in the human bladder. Similar to the protocol used in the rat bladder, isolated human bladder tissue strips were studied for EFS responses. Optimal EFS parameters were determined to be: 30 volts, square pulse of 0.1 ms, train of 5 seconds every 60 seconds, 8-10 Hz. […] Following compound incubation, the tissues were washed with PSS for a period of 1 or 3 hr, with washes approximately every 15 min, to remove the drug. At the end of the final wash period the tissues were stimulated with EFS, and left to equilibrate for at least 30 min. A concentration-response curve was then performed in each tissue.

[4] = three hr incubation with EC90, one hr of washing

T1 sequence (P26255 whole entry): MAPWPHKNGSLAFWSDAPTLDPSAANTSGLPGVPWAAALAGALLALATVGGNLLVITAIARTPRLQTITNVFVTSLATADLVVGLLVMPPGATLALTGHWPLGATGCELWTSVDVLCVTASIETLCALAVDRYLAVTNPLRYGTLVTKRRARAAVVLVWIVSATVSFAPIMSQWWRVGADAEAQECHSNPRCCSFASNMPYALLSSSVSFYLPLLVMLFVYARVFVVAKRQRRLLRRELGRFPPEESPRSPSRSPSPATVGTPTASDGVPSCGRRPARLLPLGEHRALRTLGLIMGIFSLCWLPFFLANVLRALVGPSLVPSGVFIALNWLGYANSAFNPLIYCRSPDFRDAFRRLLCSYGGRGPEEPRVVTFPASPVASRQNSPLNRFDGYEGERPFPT
T2 sequence (P13945 whole entry): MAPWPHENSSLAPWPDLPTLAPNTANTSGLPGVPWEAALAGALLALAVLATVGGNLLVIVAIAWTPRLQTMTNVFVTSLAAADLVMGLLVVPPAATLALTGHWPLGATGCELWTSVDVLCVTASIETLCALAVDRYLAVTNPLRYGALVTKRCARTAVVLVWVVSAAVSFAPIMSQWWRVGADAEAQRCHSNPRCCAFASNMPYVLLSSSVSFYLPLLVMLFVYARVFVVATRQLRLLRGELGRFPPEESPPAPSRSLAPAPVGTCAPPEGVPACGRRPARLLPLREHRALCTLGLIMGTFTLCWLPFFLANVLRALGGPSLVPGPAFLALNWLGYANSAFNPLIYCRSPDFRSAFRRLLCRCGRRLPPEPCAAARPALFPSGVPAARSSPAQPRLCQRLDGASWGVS

With `C[C@H](Cc1ccc2c(c1)OC(C(=O)[O-])(C(=O)[O-])O2)NC[C@H](O)c1cccc(Cl)c1.[Na+].[Na+]` [CL-316,243, reference compound] the EC90 (beta-3 adrenoceptor [1]) was 42 nM and the “response (reduction of EFS-induced tone) after pre-exposure” value (shortened to “response (reduction of EFS-induced tone)”) (beta-3 adrenoceptor [2]; [4]) was “significantly attenuated”.
In the case of `O=C(O)c1cccc(-c2cccc(NCCNC[C@H](O)c3cccc(Cl)c3)c2)c1` [Solabegron, 3′-[(2-{[(2R)-2-(3-chlorophenyl)-2-hydroxyethyl]amino}ethyl)amino]biphenyl-3-carboxylic acid], the solubility (Solubility of solabegron) is given as “pH dependent and low solubility”, the “safety and tolerability, adverse events as compared to placebo” value (overactive bladder) is given as “safe, well-tolerated, and does not demonstrate significant differences in adverse events as compared to placebo” and the “symptoms of overactive bladder” value (overactive bladder) is given as “significantly reduce the symptoms of overactive bladder”. For the same compound, the “response (reduction of EFS-induced tone)” value (beta-3 adrenoceptor [2]; one hr incubation with EC90, one hr of washing with PSS, vs vehicle incubation) was “significantly attenuated”, the “response (reduction of EFS-induced tone)” value (beta-3 adrenoceptor [2]; one hr incubation with EC90, three hr of washing, responses to higher concentrations) was “significantly attenuated” and the “response (reduction of EFS-induced tone)” value (beta-3 adrenoceptor [2]; [4]) was “significantly attenuated”. For the same compound, the “response (reduction of EFS-induced tone)” value (beta-3 adrenoceptor [2]; three hr incubation with EC90, three hr of washing, responses to the highest concentrations) was “significantly attenuated” and the “inhibition of EFS-induced bladder smooth muscle contraction” value (beta-3 adrenoceptor [3]) was “concentration-dependent inhibition”.
